In ChEMBL document CHEMBL5331145, “Discovery of a Novel Bifunctional Steroid Analog, YXG-158, as an Androgen Receptor Degrader and CYP17A1 Inhibitor for the Treatment of Enzalutamide-Resistant Prostate Cancer” (J Med Chem, 2023):
Activity calls are given as the source filed them. No cut-off for these calls is given here.

Columns and labels:
[1] = system: LNCaP; test: Antiproliferative activity against human LNCaP cells incubated for 6 days by CellTiter-Glo assay; assay type: functional, cell-based
[2] = target: T1, Androgen receptor (Homo sapiens, UniProt P10275); test: Induction of androgen receptor degradation in human LNCaP cells incubated for 24 hrs by ELISA; assay type: cell-based
T1 sequence (P10275 whole entry): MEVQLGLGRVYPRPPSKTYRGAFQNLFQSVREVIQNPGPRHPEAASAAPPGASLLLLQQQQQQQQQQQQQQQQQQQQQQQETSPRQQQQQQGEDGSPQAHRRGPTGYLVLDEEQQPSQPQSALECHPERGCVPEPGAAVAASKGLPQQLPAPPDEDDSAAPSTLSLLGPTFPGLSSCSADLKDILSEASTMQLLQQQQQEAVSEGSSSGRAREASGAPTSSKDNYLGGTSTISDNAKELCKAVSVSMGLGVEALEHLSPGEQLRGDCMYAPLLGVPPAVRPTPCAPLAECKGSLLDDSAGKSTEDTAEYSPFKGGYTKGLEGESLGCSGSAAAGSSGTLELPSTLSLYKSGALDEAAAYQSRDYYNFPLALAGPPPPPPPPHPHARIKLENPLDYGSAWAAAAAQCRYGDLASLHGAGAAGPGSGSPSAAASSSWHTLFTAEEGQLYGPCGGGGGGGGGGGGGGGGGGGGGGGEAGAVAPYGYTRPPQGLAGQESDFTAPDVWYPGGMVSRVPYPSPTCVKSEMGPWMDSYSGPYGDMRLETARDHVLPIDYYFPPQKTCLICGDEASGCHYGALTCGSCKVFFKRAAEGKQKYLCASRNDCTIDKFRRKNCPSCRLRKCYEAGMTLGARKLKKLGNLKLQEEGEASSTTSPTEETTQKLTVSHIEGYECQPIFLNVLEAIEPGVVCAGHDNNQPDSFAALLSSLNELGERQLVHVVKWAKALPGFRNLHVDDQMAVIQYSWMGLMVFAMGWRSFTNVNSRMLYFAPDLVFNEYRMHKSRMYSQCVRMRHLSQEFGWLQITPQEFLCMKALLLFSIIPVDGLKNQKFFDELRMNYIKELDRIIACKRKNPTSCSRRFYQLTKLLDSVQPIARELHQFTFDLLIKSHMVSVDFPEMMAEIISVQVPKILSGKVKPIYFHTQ

[3] = target: T2, Androgen receptor (Homo sapiens) (UniProt P10275); test: Potency index, ratio of galeterone DC50 to test compound DC50 for induction of androgen receptor degradation in human LNCaP cells; assay type: cell-based
T2 sequence (whole entry): T1 sequence (P10275 whole entry)

[4] = target: Voltage-gated inwardly rectifying potassium channel KCNH2 (Homo sapiens, UniProt Q12809); test: Inhibition of human ERG by patch clamp assay; assay type: toxicity
[5] = target: T2, Androgen receptor (Homo sapiens); test: Induction of androgen receptor degradation in human LNCaP cells assessed as reduction in AR mRNA level incubated for 24 hrs by qPCR analysis; assay type: cell-based; details: dose 1-20 µM
[6] = system: Mus musculus; test: In vivo induction of androgen receptor in human LNCaP/AR cells xenografted in SCID mouse assessed as reduction in PSA level at 10 to 30 mg/kg, po administered once daily for 28 days by ELISA; assay type: functional, organism-based; details: dose 10-30 mg/kg, time 28.0 day
[7] = target: T2, Androgen receptor (Homo sapiens); test: Induction of androgen receptor degradation in human VCaP cells incubated for 24 hrs by Western blot analysis; assay type: cell-based; details: dose 1-20 µM
[8] = target: Androgen receptor (Homo sapiens) (UniProt P10275); test: In vivo induction of androgen receptor in human LNCaP/AR cells xenografted in SCID mouse assessed as reduction in AR protein level at 30 mg/kg, po administered once daily for 28 days by ELISA; parameters: scale not given: the % may be the effect or the level left; details: time 28.0 day
[9] = target: Androgen receptor (Homo sapiens) (UniProt P10275); test: In vivo induction of androgen receptor in human LNCaP/AR cells xenografted in SCID mouse assessed as reduction in AR protein level at 10 mg/kg, po administered once daily for 28 days by ELISA; parameters: scale not given: the % may be the effect or the level left; details: time 28.0 day
[10] = target: T2, Androgen receptor (Homo sapiens); test: Induction of androgen receptor degradation in human LNCaP cells at 20 uM incubated for 24 hrs; assay type: cell-based
[11] = target: T2, Androgen receptor (Homo sapiens); test: Induction of androgen receptor degradation in human LNCaP cells at 20 uM incubated for 24 hrs in presence of MG-132; assay type: cell-based
[12] = system: LNCaP/AR; test: Antitumor activity against human LNCaP/AR cells xenografted in SCID male mouse assessed as tumor growth inhibition at 30 mg/kg, po administered once daily for 28 days and measured every 3 days; assay type: functional, organism-based; details: time 28.0 day
[13] = system: 22Rv1; test: Induction of androgen receptor splice variant 7 degradation in human 22Rv1 cells at 1 to 20 uM incubated for 24 hrs by Western blot analysis; assay type: cell-based; details: dose 1-20 µM
[14] = system: Androgen receptor (Homo sapiens), P10275 [F877L]; test: Antagonist activity at androgen receptor F876L mutant expressed in HEK293 cells assessed as reduction in DHT-induced transcriptional activation of androgen receptor incubated for 24 hrs by Steady-Glo assay relative to control; assay type: cell-based; parameters: scale not given: the % may be the effect or the level left; details: filed as antagonist
[15] = system: LNCaP C4-2B; test: Antitumor activity against enzalutamide resistant human LNCaP C4-2B cells xenografted in BALB/c mouse assessed as tumor growth suppression at 10 mg/kg, po administered once daily for 28 days and measured every 3 days; assay type: functional, organism-based; details: time 28.0 day
[16] = target: T2, Androgen receptor (Homo sapiens); test: Induction of androgen receptor degradation in human 22Rv1 cells incubated for 24 hrs by Western blot analysis; assay type: cell-based; details: dose 1-20 µM
[17] = target: T2, Androgen receptor (Homo sapiens); test: Induction of androgen receptor degradation in human LNCaP cells incubated for 24 hrs by Western blot analysis; assay type: cell-based; details: dose 1-20 µM

Sequence of Voltage-gated inwardly rectifying potassium channel KCNH2 (Q12809 whole entry): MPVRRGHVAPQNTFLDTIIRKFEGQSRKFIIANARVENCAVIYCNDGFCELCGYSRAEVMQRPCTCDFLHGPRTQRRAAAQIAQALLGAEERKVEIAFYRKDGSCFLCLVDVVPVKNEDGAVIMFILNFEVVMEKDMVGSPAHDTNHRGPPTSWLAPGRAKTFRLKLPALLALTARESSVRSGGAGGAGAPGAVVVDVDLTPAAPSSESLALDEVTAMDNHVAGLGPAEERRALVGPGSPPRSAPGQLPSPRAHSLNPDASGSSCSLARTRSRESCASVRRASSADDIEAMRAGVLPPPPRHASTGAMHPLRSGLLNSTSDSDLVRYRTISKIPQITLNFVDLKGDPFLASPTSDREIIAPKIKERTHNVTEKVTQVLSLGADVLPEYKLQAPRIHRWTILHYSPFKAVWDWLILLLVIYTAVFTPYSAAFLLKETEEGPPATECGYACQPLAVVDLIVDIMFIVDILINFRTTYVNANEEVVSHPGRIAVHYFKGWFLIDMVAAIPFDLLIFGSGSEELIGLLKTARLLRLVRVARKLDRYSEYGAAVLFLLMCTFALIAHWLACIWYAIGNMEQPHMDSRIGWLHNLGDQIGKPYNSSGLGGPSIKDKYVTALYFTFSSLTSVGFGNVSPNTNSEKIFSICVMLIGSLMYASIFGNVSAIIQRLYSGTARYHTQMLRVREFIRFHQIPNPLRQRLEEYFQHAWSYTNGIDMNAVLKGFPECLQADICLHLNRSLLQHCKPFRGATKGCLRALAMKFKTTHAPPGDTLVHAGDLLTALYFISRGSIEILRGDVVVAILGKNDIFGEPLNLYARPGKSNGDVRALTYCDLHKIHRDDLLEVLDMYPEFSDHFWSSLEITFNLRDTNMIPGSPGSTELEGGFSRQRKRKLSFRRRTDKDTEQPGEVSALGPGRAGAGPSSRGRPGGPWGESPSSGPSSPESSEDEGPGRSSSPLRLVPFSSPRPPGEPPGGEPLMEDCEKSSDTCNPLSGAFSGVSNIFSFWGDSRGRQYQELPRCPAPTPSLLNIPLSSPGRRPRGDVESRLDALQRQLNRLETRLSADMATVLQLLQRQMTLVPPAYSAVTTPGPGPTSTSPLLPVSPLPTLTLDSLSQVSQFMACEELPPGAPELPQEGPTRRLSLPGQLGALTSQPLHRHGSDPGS
Sequence of Androgen receptor (Homo sapiens), P10275 [F877L] (P10275 whole entry F877L): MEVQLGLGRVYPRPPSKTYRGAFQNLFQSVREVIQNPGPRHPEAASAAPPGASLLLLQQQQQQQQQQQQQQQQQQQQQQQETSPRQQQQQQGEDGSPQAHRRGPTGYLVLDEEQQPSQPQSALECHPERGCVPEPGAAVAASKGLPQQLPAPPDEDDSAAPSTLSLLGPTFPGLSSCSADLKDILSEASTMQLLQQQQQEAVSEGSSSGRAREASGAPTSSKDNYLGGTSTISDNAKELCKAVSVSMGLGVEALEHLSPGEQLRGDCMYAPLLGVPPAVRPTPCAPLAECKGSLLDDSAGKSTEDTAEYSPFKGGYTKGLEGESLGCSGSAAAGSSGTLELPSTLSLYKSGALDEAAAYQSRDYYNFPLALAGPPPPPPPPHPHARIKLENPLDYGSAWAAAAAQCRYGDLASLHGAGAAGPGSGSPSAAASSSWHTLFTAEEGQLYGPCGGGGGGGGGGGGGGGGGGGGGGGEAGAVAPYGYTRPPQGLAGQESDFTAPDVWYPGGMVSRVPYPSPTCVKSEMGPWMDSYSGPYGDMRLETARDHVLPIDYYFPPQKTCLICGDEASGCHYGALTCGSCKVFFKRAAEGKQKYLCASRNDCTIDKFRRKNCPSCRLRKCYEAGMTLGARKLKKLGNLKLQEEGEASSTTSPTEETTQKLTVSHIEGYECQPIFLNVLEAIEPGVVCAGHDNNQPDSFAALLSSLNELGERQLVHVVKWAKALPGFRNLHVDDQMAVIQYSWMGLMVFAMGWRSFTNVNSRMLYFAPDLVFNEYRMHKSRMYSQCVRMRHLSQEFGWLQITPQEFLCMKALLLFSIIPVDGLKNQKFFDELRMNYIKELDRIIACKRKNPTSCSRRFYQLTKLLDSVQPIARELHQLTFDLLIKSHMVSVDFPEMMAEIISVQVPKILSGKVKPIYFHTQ

IC50 [1] [nM] | Structure (SMILES) | IC50 [4] [nM] | further results
6550 | Cc1cn(C2=CCC3C4CC=C5C[C@@H](NC(=O)n6ccnc6)CC[C@]5(C)C4CC[C@]23C)cn1 (stereo not given in full) | – | –
1380 | CC(=O)c1cn(C2=CCC3C4CC=C5C[C@@H](NC(=O)c6ccnnc6)CC[C@]5(C)C4CC[C@]23C)cn1 (stereo not given in full) | – | –
1240 | Cc1cn(C2=CCC3C4CC=C5C[C@@H](NC(=O)c6ccncn6)CC[C@]5(C)C4CC[C@]23C)cn1 (stereo not given in full) | – | –
3650 | Cc1cn(C2=CCC3C4CC=C5C[C@@H](NS(=O)(=O)c6ccc(C#N)cc6)CC[C@]5(C)C4CC[C@]23C)cn1 (stereo not given in full) | – | –
958 | CC(C)c1cn(C2=CCC3C4CC=C5C[C@@H](NC(=O)c6ccnnc6)CC[C@]5(C)C4CC[C@]23C)cn1 (stereo not given in full) | > 40000 | –
2420 | Cc1cn(C2=CCC3C4CC=C5C[C@@H](NC(=O)c6ncccn6)CC[C@]5(C)C4CC[C@]23C)cn1 (stereo not given in full) | – | –
1960 | COC(=O)c1cn(C2=CCC3C4CC=C5C[C@@H](NC(=O)c6ccnnc6)CC[C@]5(C)C4CC[C@]23C)cn1 (stereo not given in full) | – | –
608 | C[C@]12CC[C@H](NC(=O)c3ccnnc3)CC1=CCC1C2CC[C@]2(C)C(n3cnc(Cl)c3)=CCC12 (stereo not given in full) | 24600 | –

The next lines start with the compound.

Structure (SMILES) | IC50 [1] [nM] | IC50 [4] [nM] | further results
CC(C)c1cn(C2=CCC3C4CC=C5C[C@@H](NC(=O)c6ccncc6)CC[C@]5(C)C4CC[C@]23C)cn1 (stereo not given in full) | 734 | 15000 | EC50 [2]: 4760 nM; Ratio [3]: 2.5
Cc1cn(C2=CCC3C4CC=C5C[C@@H](NC(=O)c6ccc(F)cc6)CC[C@]5(C)C4CC[C@]23C)cn1 (stereo not given in full) | – | – | Activity [5]: Dose-Dependent Effect; Activity [6]: Active; Activity [7]: Dose-Dependent Effect; Activity [8]: 52%; Activity [9]: 40%; Activity [10]: Active; Activity [11]: inactive; Activity [12]: Active; Activity [13]: Active; Activity [14]: 68%; Activity [15]: inactive; Activity [16]: Dose-Dependent Effect; Activity [17]: Dose-Dependent Effect
Cc1cn(C2=CCC3C4CC=C5C[C@@H](NC(=O)c6ccc(C#N)cc6)CC[C@]5(C)C4CC[C@]23C)cn1 (stereo not given in full) | 643 | > 40000 | EC50 [2]: 1560 nM; Ratio [3]: 2.5
COc1cn(C2=CCC3C4CC=C5C[C@@H](NC(=O)c6ccncc6)CC[C@]5(C)C4CC[C@]23C)cn1 (stereo not given in full) | 436 | 4070 | –
CCc1cn(C2=CCC3C4CC=C5C[C@@H](NC(=O)c6ccnnc6)CC[C@]5(C)C4CC[C@]23C)cn1 (stereo not given in full) | 427 | 6580 | –
C[C@]12CC[C@H](NC(=O)c3ccnnc3)CC1=CCC1C2CC[C@]2(C)C(n3cnc(C(F)(F)F)c3)=CCC12 (stereo not given in full) | 819 | – | –
C[C@]12CC[C@H](NC(=O)c3ccnnc3)CC1=CCC1C2CC[C@]2(C)C(n3cnc([N+](=O)[O-])c3)=CCC12 (stereo not given in full) | 418 | > 40000 | EC50 [2]: 3310 nM; Ratio [3]: 2.5
